Laboratory results: patent publication US20250100977A1, “MERCAPTOPYRIMIDINE COMPOUNDS THAT INHIBIT NONHOMOLOGOUS END JOINING AND METHODS THEREOF” (INDIAN INSTITUTE OF SCIENCE, priority 2021, published 2025)

Key:
Ligase III/XRCC1 = target: T1, Ligase III/XRCC1 (Homo sapiens, UniProt P49916); test: Inhibition of end joining by purified Ligase III/XRCC1; assay type: biochemical; conditions: 50, 100, 200, 500, 1000 μM
T1 construct: made in house
Description: The compounds of the present invention were analysed for inhibition of end joining with purified Ligase I (FIG. 3A) and Ligase III/XRCC1 (FIG. 3F). The compounds were incubated with either purified Ligase I (FIG. 3B-E) or with Ligase III/XRCC1 (FIGS. 3G-J) in suitable NHEJ buffer at 25° C. for 30 min, followed by addition of radiolabeled DNA, and further incubation for 1 h at 25° C. Products were purified using phenol: chloroform, and run on denaturing PAGE.
Effects of these compounds on NHEJ and Ligase IV mediated joining were evaluated (FIG. 4A-K). The reactions were terminated by EDTA (10 mM), products were purified using phenol/chloroform, precipitated with chilled ethanol and glycogen, and resolved on 8% denaturing PAGE. The gel was dried, exposed, and signal was detected using phosphor Imager FLA9000 (Fuji, Japan), and quantified in MultiGauge software expressed as Photo Stimulated Luminescence Units (PSLU). Inhibition of end joining was reported at 200 μM and 100 μM, respectively for SCR116 and SCR132 (FIGS. 4A, B, C and D), with >50% inhibition at 200 and 100 μM concentrations, respectively. […] FIG. 4K depict the purification profile of Ligase IV and XRCC4. […]

LN229 = test: Cytotoxicity in LN229; assay type: cell-based; conditions: Homo sapiens, LN-229; Table 2; read-out: IC50 in cancer cell lines, LN229
Description: Ligase IV specificity of the compounds of the present invention inside the cells were also determined using Ligase IV knock out (KO) cell line N114 compared to the wild type Nalm6 (Table 2, FIGS. 5C, D, E and F). […] Table 1 showing IC50 of SCR7 derivatives in cancer cell lines Nalm6 and HeLa. IC50 was calculated using GraphPad Prism software from the percentage of viable cells following treatment with the compounds at 48 h. Table 2 showing IC50 of SCR116 and SCR132 in a panel of 16 cancer cell lines.

[1] = test system: B cells (CD19+) and T cells (CD3+); test: B and T cells after 28 days SCR116 treatment; assay type: in vivo, swiss albino mice; conditions: oral 80, 160 and 320 mg/kg b.wt.
Description: FIG. 14(A-B) depicts the evaluation of effect on B cells after SCR 116 treatment for 28 days in normal swiss albino mice A. After oral administration of low, medium, and high concentrations of SCR116 (80, 160 and 320 mg/kg b.wt. respectively). B is showing quantitation of the total B cell population (CD19+). (ns: not significant, *p<0.05: **p<0.005), in accordance with an implementation of the present disclosure.
FIG. 15(A-B) depicts the evaluation of the effect on T cells after SCR116 treatment for 28 days in normal swiss albino mice. A. After oral administration of low, medium and high concentrations of SCR116 (80, 160 and 320 mg/kg b.wt. respectively). B. is showing the quantitation of the total T cell population (CD3+). (ns: not significant, *p<0.05: **p<0.005), in accordance with an implementation of the present disclosure.
FIG. 13 depicts the blood parameters analysis of Swiss albino mice after 10 days of dose-ranging study after treating with SCR116 and SCR132. A. RBC (n=3). B. Hemoglobin (n=3). C. MCHC (n=3). D. Total leukocyte count (n=3). E. Platelet count (n=3) (ns: not significant, *p<0.05: **p<0.005).

T1 sequence (P49916 43-1009): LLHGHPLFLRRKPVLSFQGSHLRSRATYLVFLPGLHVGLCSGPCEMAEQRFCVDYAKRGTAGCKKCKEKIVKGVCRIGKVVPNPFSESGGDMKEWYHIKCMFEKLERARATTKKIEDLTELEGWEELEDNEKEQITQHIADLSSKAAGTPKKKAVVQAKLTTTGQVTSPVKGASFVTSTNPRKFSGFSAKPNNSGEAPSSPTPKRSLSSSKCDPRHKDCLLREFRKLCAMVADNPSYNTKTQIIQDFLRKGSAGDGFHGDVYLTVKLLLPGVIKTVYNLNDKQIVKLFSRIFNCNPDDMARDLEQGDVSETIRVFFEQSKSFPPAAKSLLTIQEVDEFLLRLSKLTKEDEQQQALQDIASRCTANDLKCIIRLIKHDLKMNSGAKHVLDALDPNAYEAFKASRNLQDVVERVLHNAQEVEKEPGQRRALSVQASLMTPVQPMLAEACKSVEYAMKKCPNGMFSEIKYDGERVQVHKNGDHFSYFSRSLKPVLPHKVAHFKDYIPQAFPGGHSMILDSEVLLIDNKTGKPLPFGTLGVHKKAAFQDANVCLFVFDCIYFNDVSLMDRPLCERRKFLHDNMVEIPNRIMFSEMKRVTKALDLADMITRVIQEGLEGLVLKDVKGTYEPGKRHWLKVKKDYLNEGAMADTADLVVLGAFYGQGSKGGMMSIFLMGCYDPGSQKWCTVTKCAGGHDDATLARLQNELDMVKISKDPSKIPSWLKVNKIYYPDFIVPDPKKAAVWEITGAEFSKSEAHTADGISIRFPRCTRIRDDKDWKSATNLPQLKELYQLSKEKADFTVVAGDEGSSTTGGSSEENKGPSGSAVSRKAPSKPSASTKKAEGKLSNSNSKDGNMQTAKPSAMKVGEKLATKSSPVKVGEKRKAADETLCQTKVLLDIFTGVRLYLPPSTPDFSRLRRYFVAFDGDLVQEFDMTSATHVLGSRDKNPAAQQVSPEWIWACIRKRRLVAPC
T1 sequence (P18887 whole entry partner): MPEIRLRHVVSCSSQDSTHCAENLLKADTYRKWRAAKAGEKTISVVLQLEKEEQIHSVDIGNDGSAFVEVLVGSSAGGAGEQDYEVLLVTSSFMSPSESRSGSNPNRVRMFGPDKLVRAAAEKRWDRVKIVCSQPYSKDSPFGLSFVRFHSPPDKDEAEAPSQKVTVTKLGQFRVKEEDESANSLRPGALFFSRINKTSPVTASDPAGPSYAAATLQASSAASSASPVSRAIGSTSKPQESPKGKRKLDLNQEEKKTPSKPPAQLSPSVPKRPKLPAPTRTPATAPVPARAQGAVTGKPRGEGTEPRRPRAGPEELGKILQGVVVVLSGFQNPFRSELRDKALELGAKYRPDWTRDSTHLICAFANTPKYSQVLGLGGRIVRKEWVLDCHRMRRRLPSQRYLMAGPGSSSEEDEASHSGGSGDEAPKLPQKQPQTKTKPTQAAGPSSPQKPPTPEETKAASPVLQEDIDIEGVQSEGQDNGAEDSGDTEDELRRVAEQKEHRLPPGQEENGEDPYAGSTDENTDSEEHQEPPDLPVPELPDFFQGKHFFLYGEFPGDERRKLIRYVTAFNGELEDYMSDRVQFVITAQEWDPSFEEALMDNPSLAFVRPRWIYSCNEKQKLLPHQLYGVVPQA

Row | SMILES | Inhibition of end joining with Ligase III/XRCC1 (Ligase III/XRCC1) | IC50 (LN229) | Production of B cells [1] | Production of T cells [1]
1 | Nc1nc(S)nc(O)c1/N=C/c1sc(Cl)nc1Cl [Compound 32, (E)-6-amino-5-(((2,4-dichlorothiazol-5-yl)methylene)amino)-2-mercaptopyrimidin-4-ol] | no significant inhibition | 7.7 µM |  | 
2 | Nc1nc(S)nc(O)c1/N=C/c1ccc([N+](=O)[O-])s1 [Compound 16, (E)-6-amino-2-mercapto-5-(((5-nitrothiophen-2-yl)methylene)amino)pyrimidin-4-ol] | inhibited end joining at highest concentrations of 500 and 1000 μM | 5.6 µM | no significant changes | no significant changes
